Experimental data from BindingDB's records for patent US11583538 (Venenum Biodesign, 2023).

Biological target: T1, Three-prime repair exonuclease 1 (Homo sapiens, UniProt Q9NSU2)
T1 sequence (Q9NSU2 whole entry): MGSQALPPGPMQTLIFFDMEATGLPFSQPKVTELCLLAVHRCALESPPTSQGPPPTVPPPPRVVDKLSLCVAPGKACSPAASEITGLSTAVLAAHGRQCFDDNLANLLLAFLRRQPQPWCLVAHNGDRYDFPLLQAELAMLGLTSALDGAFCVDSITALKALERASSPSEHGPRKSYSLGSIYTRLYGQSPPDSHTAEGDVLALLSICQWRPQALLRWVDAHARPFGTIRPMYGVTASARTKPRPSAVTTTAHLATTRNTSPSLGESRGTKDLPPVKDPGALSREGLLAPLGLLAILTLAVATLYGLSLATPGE
Assay: TREX1 Exonuclease Assay
Method: For human TREX1, the nucleotide sequence of the gene construct was codon optimized for expression in the bacterial host. The sequence was incorporated into the pMAL-c5e vector (NEB) downstream of a solubility-promoting MBP (maltose binding protein) fusion partner. The fusion protein product was expressed in E. coli strain BL21 (DE3) (Millipore) and purified in a series of chromatographic steps. Initial steps were conducted using a dextrin sepharose affinity column followed by a Q-sepharose ion exchange column (both GE Healthcare). After the second column the MBP partner was removed by incubation with enterokinase (NEB). Further purification was carried out with the second application of a Q-sepharose column followed by a Superdex 75 (GE Healthcare) size exclusion column. Finally, a heparin sepharose column (GE Healthcare) was applied to remove contaminating nucleotides. […] Next, 4 μL of human TREX1 (0.5 nM), or murine TREX1 (1 nM), diluted in assay buffer (20 mM Tris pH 7.5, 5 mM MgCl, 100 μg/mL BSA, 0.002% Triton X-100, 2 mM DTT), was added to the assay plate. After incubating for 30 minutes, 4 μL of labeled DNA oligonucleotide (500 nM) in assay buffer was added to initiate TREX1 exonuclease activity. The reaction was allowed to proceed for 45 minutes at room temperature prior to the addition of 4 μL of 150 mM EDTA to halt TREX1 activity.

Row | Compound | IC50
1 | CCOC(=O)CC[C@H](C(=O)NCc1ccc(Cl)c(Cl)n1)N1CCC(CCc2ccccc2)N2C[C@H](N)C[C@H]2C1=O (stereo not given in full) [US11583538, Example 95] | < 1000 nM
2 | N[C@@H]1C[C@H]2C(=O)N([C@@H](CCC(=O)O)C(=O)NCc3ccc(Cl)c(Cl)c3)CCC(CCc3ccccc3)N2C1 (stereo not given in full) [US11583538, Example 29] | < 1000 nM
3 | N[C@@H]1C[C@H]2C(=O)N([C@H](CCC(=O)NO)C(=O)NCc3ccc(Cl)c(Cl)c3)CCC(COc3cccc(F)c3)N2C1 (stereo not given in full) [US11583538, Example 114] | < 1000 nM
4 | COC(=O)CC[C@H](C(=O)NCc1ccc(Cl)c(Cl)c1)N1CCC(COc2ccc(F)cc2)N2C[C@H](N)C[C@H]2C1=O (stereo not given in full) [US11583538, Example 91] | < 1000 nM
5 | N[C@@H]1C[C@H]2C(=O)N([C@H](CCC(=O)O)C(=O)NCc3cc(Cl)c(Cl)c[n+]3[O-])CCC(CCc3ccccc3)N2C1 (stereo not given in full) [US11583538, Example 134] | < 1000 nM
6 | N[C@@H]1C[C@H]2C(=O)N([C@@H]3CCCN(S(=O)(=O)c4ccc(Cl)c(Cl)c4)C3)CCC(CCc3ccccc3)N2C1 (stereo not given in full) [US11583538, Example 83] | < 1000 nM
7 | N[C@@H]1C[C@H]2C(=O)N([C@H](CCNC(=O)C3CC3)C(=O)NCc3ccc(Cl)c(Cl)c3)CCC(CCc3ccccc3)N2C1 (stereo not given in full) [US11583538, Example 130] | < 1000 nM
8 | N[C@@H]1C[C@H]2C(=O)N([C@H](CCC(=O)O)C(=O)NCc3ccc(Cl)c(Cl)c3)CCC(COc3cccc(F)c3)N2C1 (stereo not given in full) [US11583538, Example 77] | < 1000 nM
9 | CC(C)C[C@H](CNS(=O)(=O)c1ccc(Cl)c(Cl)c1)N1CCC(CCc2ccccc2)N2C[C@H](N)C[C@H]2C1=O (stereo not given in full) [US11583538, Example 81] | < 1000 nM
10 | CC(C)C[C@H](C(=O)NCc1ccc(Cl)c(Cl)c1)N1CCC(C[S+]([O-])c2ccccc2)N2C[C@H](N)C[C@H]2C1=O (stereo not given in full) [US11583538, Example 125A] | < 1000 nM
11 | N[C@@H]1C[C@H]2C(=O)N([C@H](CCC(=O)O)C(=O)NCc3ccc(Cl)c(Cl)c3)CCC(COc3ccccc3F)N2C1 (stereo not given in full) [US11583538, Example 79] | < 1000 nM
12 | N[C@@H]1C[C@H]2C(=O)N([C@H](CS(=O)(=O)c3ccccc3O)C(=O)NCc3ccc(Cl)c(Cl)c3)CCC(CCc3ccccc3)N2C1 (stereo not given in full) [US11583538, Example 124] | < 1000 nM
13 | COC(=O)CC[C@H](C(=O)NCc1ccc(Cl)c(Cl)c1)N1CCC(COc2cccc(F)c2)N2C[C@H](N)C[C@H]2C1=O (stereo not given in full) [US11583538, Example 90] | < 1000 nM
14 | N[C@@H]1C[C@H]2C(=O)N([C@H](CSc3ccccc3O)C(=O)NCc3ccc(Cl)c(Cl)c3)CCC(CCc3ccccc3)N2C1 (stereo not given in full) [US11583538, Example 123] | < 1000 nM
15 | CCOC(=O)CC[C@H](C(=O)NCc1ccc(Cl)c(Cl)c1F)N1CCC(CCc2ccccc2)N2C[C@H](N)C[C@H]2C1=O (stereo not given in full) [US11583538, Example 93] | < 1000 nM
